Experiment [1] deals with 3T3-L1 pre-adipocytes, mature adipocytes and murine skeletal muscle cells. Put plainly: In vitro screening of small molecules for cellular glucose uptake. It counts as cell-based. Particulars: 20 μM/well, 24 h; for greater glucose uptake compared to control: other replications not presented; for increase in cellular glucose: tested 3 or more times in different cell types. Here is the method: Next, over time, Applicants tested cellular glucose uptake with 41 different E4orf1 analog small molecules in 3T3-L1 pre-adipocytes, mature adipocytes and murine skeletal muscle cells. Cells were exposed to 20 μM/well of E4orf1 analogs. Glucose uptake by cells was determined 24 h later. Insulin and human adenovirus Ad36 were used as positive controls for glucose uptake. The * indicates statistical significance after Bonferroni correction for multiple comparisons.
Applicants conducted glucose uptake assays for compounds several separate times. BN #3 and BT #141 had about 70% greater glucose uptake compared to control in other replications not presented herein.

In experiment [2] the test system is C57BL/6J male mice on a 60% kcal high-fat diet. Put plainly: Glucose tolerance test (GTT) in high-fat diet fed mice. It counts as in vivo. Particulars: daily injection of 4 mg/kg, GTT 7 and/or 14 days post-treatment, vs DMSO control mice. The protocol:
(§1) To determine improvement in glucose disposal in vivo, 10 wk old C57BL/6J male mice (Jax Laboratories) on a 60% kcal high-fat diet (Research diets, Inc.) since 6 weeks of age were divided into weight-matched groups. In individual experiments, mice were treated with daily injection of 4 mg/kg of respective small molecules (BN #3, BT #141, BT #143 and BT #181) or DMSO alone as control. Improvement in glycemic control was determined by glucose tolerance test (GTT) performed at baseline (prior to treatment), 7 days and/or 14 days post-treatment. Insulin-independent action of the small molecules was also measured by collecting blood during GTT and quantifying serum insulin by enzyme-linked immunosorbent assay (ELISA).

Experiment [3] shares this test system. Put plainly: Serum insulin by ELISA during GTT in high-fat diet fed mice. It counts as in vivo. Particulars: daily injection of 4 mg/kg, vs DMSO control mice. The protocol: as §1
Background: In an ELISA, binding on a coated surface is turned into a signal by an enzyme label.

The subject of a further experiment is 3T3L1 preadipocytes. The experiment is described as follows: Glucose uptake in 3T3L1 preadipocytes treated with E4orf1 analogs. Type of experiment: cell-based. The note with it: analogs 2 μl/ml of media, 24 hr in dark, vs DMSO, repeated 3 times. Here is the method: FIG. 3 illustrates that selected E4orf1 chemical analogs increase glucose uptake. 3T3L1 preadipocytes were treated with dimethyl sulfoxide (DMSO) or insulin or treated with analogs BT324, BT325, BT326, BT327, BT328, and BT329. The treatments were compared using one way analysis of variance (ANOVA) and post hoc Tukey's test. Groups sharing same letters are not statistically significant.
(§2) 3T3L1 preadipocytes (passage number 8 below) were used to treat with analogs. As control, cells were treated with equal volumes of DMSO. As positive control, cells were treated with 100 nM insulin. Cells at 70% confluency were treated with analogs (2 μl/ml of media) in dark for 24 hr. Post 24 hr treatment, cells were used either to determine glucose uptake or to obtain cell lysates for determining pAKT abundance by Western blot analysis.

The test system of another experiment is pAkt/Akt. The experiment is described as follows: Western blot for pAkt/Akt in cell lysates of treated 3T3L1 preadipocytes. Particulars: 24 hr incubation, vs DMSO. It counts as cell-based. Here is the method: FIG. 4 illustrates that the E4orf1 chemical analogs that increase glucose uptake also increase pAkt levels—the underlying mechanism for increasing cellular glucose uptake. 3T3L1 preadipocytes were treated with DMSO or insulin or with analogs BT324, BT325, BT327, or BT329. Post 24 hr incubation in the dark, cell lysates were collected and 20 μg of protein was loaded and probed for pAkt/Akt. Band intensities were analyzed using Image J software. Groups sharing same letters are not statistically significant.
as §2
On the technique in general: In western blotting, separated proteins are transferred to a membrane and probed.

Entries after “also recorded” stand apart in the source; their conditions may differ.

`Cc1cc(C(C#N)Nc2ccc(B3OC(C)(C)C(C)(C)O3)cc2)no1` (stereo not shown) [BN #3]: in experiment [1], the “greater glucose uptake compared to control” value is recorded as “about 70%” and the “increase in cellular glucose” value is reported as “consistently significant increase in cellular glucose”. Also, the “glucose clearance / glycemic control (GTT)” value in experiment [2] (4 mg/kg) is “improved glycemic control; also recorded: improved glucose disposal”. The insulin secretion result in experiment [3] is “lower insulin secretion”.
With `COC(=O)c1cc2cc(Cl)ccc2oc1=O` [BT324], in the experiment on 3T3L1 preadipocytes, the glucose uptake entry is on record as “significantly increased glucose uptake”. For the same molecule, the pAkt/Akt result in the experiment with pAkt/Akt was “significant increase in pAkt/Akt”.
Regarding `O=C(O)c1cc2cc(Cl)ccc2oc1=O` [BT325], the glucose uptake result with 3T3L1 preadipocytes is listed as “significantly increased glucose uptake”. For the same molecule, the pAkt/Akt result with pAkt/Akt is recorded as “significant increase in pAkt/Akt”.
For the molecule `O=C(O)c1cc2cc(Cl)ccc2[nH]c1=O` [BT327], the glucose uptake entry in the experiment on 3T3L1 preadipocytes is given as “significantly increased glucose uptake”. Also, the pAkt/Akt entry with pAkt/Akt is listed as “significant increase in pAkt/Akt”.
On to `C#Cc1ccc(/C(N)=N/O)cc1` [BT329], for which the glucose uptake entry with 3T3L1 preadipocytes was “significantly increased glucose uptake”. The pAkt/Akt entry in the experiment with pAkt/Akt is reported as “significant increase in pAkt/Akt”.
As to `CC1(C)OB(c2ccc(C(C#N)Nc3ccc(O)cc3)cc2)OC1(C)C` (stereo not shown) [BT #141], in experiment [1], the “greater glucose uptake compared to control” value was “about 70%”. Also, the “increase in cellular glucose” value in experiment [1] was “consistently significant increase in cellular glucose”. Further, the “glucose clearance / glycemic control (GTT)” value in experiment [2] (4 mg/kg) is listed as “improved glycemic control”; in experiment [2] (listed as BN #141, 4 mg/kg), “improved glucose disposal”.

The values above are taken from patent publication US20220071953A1, “Small Molecule Analogs Of The Protein E4ORF1 In The Treatment And Prevention Of Metabolic Disorders” (Texas Tech University System, priority 2019, published 2022).
